Values joined by “and” are separate entries in the source; they are usually repeats but may differ in a detail not shown here. Identical values can stand only once. Positions of bridges follow the written chain, without caps; N, C: chain ends. Non-standard residues stand in square brackets, D forms with d. Residues, ends and D or L forms follow the SMILES beside them. Chains are numbered I, II in the order given.
Assays:
[1] = system: PC3 cells; details: 48 h
Procedure: 20,000 PC3 cells were plated overnight in 96 well plates (Costar) at a concentration of 200,000 cells/ml. They are treated with the peptides, doxorubicin, docetaxel alone, or in combination for different time period incubation and the cell viability was determined by MTT assay as described. The percentage survival of the cells with different treatments was calculated using DMSO-vehicle control-treated cells as the standard.

[2] = system: LnCAP cells; type: cell-based; details: 48 h
[3] = system: PC3 cells; experiment: Live/Dead assay by flow cytometry, PC3; type: cell-based; details: ± standard error, at least 4 replicates
Procedure: PC3 or HeLa cells were seeded at 400,000 or 500,000 cells per well respectively in 6-well tissue culture plates (BD Falcon) and allowed to attach overnight at 37°C with 5% CO2. The cells were incubated with different concentrations of d-wrwycr for 24 or 48 h respectively before the cells were lifted off from the plate. Cell pellets were resuspended in 200 µl of dye […] protocol (Live/dead cytotoxicity kit for mammalian cells, Invitrogen and reference). Data were collected in BDFacs Canto and analyzed using FACSDiva software (Becton-Dickenson).

[4] = system: HeLa cells; experiment: Live/Dead assay by flow cytometry, HeLa; type: cell-based; details: ± standard error, at least 4 replicates
Procedure: PC3 or HeLa cells were seeded at 400,000 or 500,000 cells per well respectively in 6-well tissue culture plates (BD Falcon) and allowed to attach overnight at 37°C with 5% CO2. The cells were incubated with different concentrations of d-wrwycr for 24 or 48 h respectively before the cells were lifted off from the plate. Cell pellets were resuspended in 200 µl of dye solution containing either cell-permeable calcein AM and/or cell-impermeant ethidium homodimer according to the manufacturer's protocol (Live/dead cytotoxicity kit for mammalian cells, Invitrogen and reference). Data were collected in BDFacs Canto and analyzed using FACSDiva software (Becton-Dickenson).

[5] = system: caspase-3 in PC3 cells; experiment: Caspase-3 assay (Ac-DEVD-AFC cleavage); type: cell-based; details: PC3, 50–200 µM, 12–48 h
Procedure: 400,000 PC3 cells were plated in a 6-well plate (BD Falcon) at a concentration of 200,000 cells/ml and were allowed to attach overnight at 37°C with 5% CO2 and treated with 50–200 µM wrwycr for 12, 24 or 48 h. The wrwycr-treated cell lysates were incubated with Ac-DEVD (Asp-Glu-Val-Asp)-AFC, a caspase-3 substrate, for 1 h. Activated caspase-3 will cleave between the DEVD and AFC, releasing latter, a fluorogenic compound that can be excited at 400 nm and the resulting emission can be read at 505 nm by the Spectra Max Gemini XS fluorometer plate reader using Softmax Pro version 3.1.2 software. The total protein concentration was calculated for each sample by using BioRad protein assay kit. To normalize the fluorescence reading (RFU) for each sample, the reading for each sample was divided by the corresponding protein concentration of the samples.

[6] = system: PC3 cells; experiment: TUNEL assay, PC3; type: cell-based; details: PC3, 150 µM, 48 h
Procedure: 600,000 PC3 cells or 500,000 HeLa cells were plated in 60-mm dishes or 6-well plates respectively to allow them to attach overnight at 37°C with 5% CO2. PC3 cells were subsequently treated with appropriate treatments for 24, 36 and 48 h while HeLa cells were treated with 1 µl of either the caspase inhibitor z-VAD-fmk or z-FA-fmk (both from Biovision), containing appropriate treatments, for 24 h. The cells were fixed with 4% paraformaldehyde for 30 min and permeabilized with 0.1% Triton X-100 in 0.1% sodium citrate buffer for 3 mins. Labeled dUTP were added along with the terminal deoxynucleotidyl transferase dUTP nick end labeling (TUNEL) (TUNEL kit from Roche) as described in the kit. Samples were analyzed using a Becton Dickinson FACS Canto flow cytometer as specified above.

[7] = system: 53BP1 in PC3 cells; experiment: 53BP1 foci by fluorescence microscopy; type: cell-based; details: PC3, 48 h
Procedure: 200,000 PC3 cells were plated on cover-slips (Fisherbrand) mounted on each well of the 12-well dishes and allowed to attach overnight at 37°C incubator with 5% CO2. The cells were treated with 50, 100, 150, or 200 µM of wrwycr, or 1, 5, 10, 25, or 50 µM of wrwyrggrywrw for 48 h. […] The samples were probed with 1∶500 diluted mouse anti-γH2AX antibody (Millipore) or 1∶1000 diluted rabbit anti-53BP1 (Novus-Biologicals) with overnight incubation followed by Dylight anti-mouse or anti-rabbit secondary antibodies (Biolegend) respectively. DAPI (5 µg/ml) was used to stain the nucleus. The stained cells on the coverslips were mounted on the glass slides and observed with a Zeiss inverted microscope with AxioVision 4.8 software and using the 100× magnification. Foci of 53BP1 were counted manually and the average number of foci per cell was calculated.

[8] = system: Chk2 in PC3 cells; experiment: Phospho-Chk2 by flow cytometry; type: cell-based; details: PC3, 50 µM wrwycr on its own, 48 h
Procedure: They were subsequently treated with either 50-200 μM […] or 50-100 μM […] or 0.5-1 μM doxorubicin or combination treatment for 0, 12, 24, 36 and 48 h. […] Samples were analyzed using a Becton Dickinson FACS Canto flow cytometer at a forward scatter voltage of 25 V, side-scatter voltage of 400 V, and FITC channel at a voltage of 400 V.

IC50 [1]: 100 µM
IC50 [2]: 100 to 150 µM
Structure (SMILES): N=C(N)NCCC[C@@H](NC(=O)[C@@H](CSSC[C@@H](NC(=O)[C@@H](Cc1ccc(O)cc1)NC(=O)[C@@H](Cc1c[nH]c2ccccc12)NC(=O)[C@@H](CCCNC(=N)N)NC(=O)[C@H](N)Cc1c[nH]c2ccccc12)C(=O)N[C@H](CCCNC(=N)N)C(N)=O)NC(=O)[C@@H](Cc1ccc(O)cc1)NC(=O)[C@@H](Cc1c[nH]c2ccccc12)NC(=O)[C@@H](CCCNC(=N)N)NC(=O)[C@H](N)Cc1c[nH]c2ccccc12)C(N)=O [wrwycr, Trp-Arg-Trp-Tyr-Cys-Arg] (I: H-[dW][dR][dW][dY][dC][dR]-NH2 / II: H-[dW][dR][dW][dY][dC][dR]-NH2; disulfide I:5-II:5; N-terminus assumed)
PC3 population %Live ([3]; 100 µM wrwycr, calcein AM): 64.9±2.5%
PC3 population % Dead ([3]; 100 µM wrwycr, propidium iodide permeable): 33.4±2.0%
PC3 population % Dead ([3]; 150 µM wrwycr): 33.8±0.6%
PC3 population %Live ([3]; 150 µM wrwycr): 64.4±0.9%
PC3 population % Dead ([3]; 200 µM wrwycr): 40.6±4.8%
PC3 population %Live ([3]; 200 µM wrwycr): 58% and 57.7±4.7%
Hela population % Dead ([4]; 100 µM wrwycr): 5.4±2.0%
Hela population %Live ([4]; 100 µM wrwycr): 90.4±2.3%
Hela population % Dead ([4]; 150 µM wrwycr): 7.8±2.7%
Hela population %Live ([4]; 150 µM wrwycr): 86.3±2.5%
Hela population % Dead ([4]; 200 µM wrwycr): 12.7±6.0%
Hela population %Live ([4]; 200 µM wrwycr): 79% and 79.3±4.5%
caspase-3 activation compared to DMSO control [5]: no significant activation of caspase-3
TUNEL positive cell population [6]: 65%
accumulation of 53BP1 foci [7]: accumulation of 53BP1 protein in a dose-dependent manner
cells with activated Chk2 [8]: About 5%

Reference: paper PMC3828334, “Tumor Cell Death Mediated by Peptides That Recognize Branched Intermediates of DNA Replication and Repair” (PLoS ONE, 2013)
